Results on eight compounds are retold here after US5998427A, “Androstenones” (Glaxo Wellcome Inc., priority 1998, dated 1999).

The target in data set [1] is T1, Human Adrenal 3BHSD (Homo sapiens, UniProt P26439).
T1 construct: microsomes derived from human adrenal tissues; from tissue; host or cells: human adrenal tissue (microsomes)
T1 sequence (P26439 1-372): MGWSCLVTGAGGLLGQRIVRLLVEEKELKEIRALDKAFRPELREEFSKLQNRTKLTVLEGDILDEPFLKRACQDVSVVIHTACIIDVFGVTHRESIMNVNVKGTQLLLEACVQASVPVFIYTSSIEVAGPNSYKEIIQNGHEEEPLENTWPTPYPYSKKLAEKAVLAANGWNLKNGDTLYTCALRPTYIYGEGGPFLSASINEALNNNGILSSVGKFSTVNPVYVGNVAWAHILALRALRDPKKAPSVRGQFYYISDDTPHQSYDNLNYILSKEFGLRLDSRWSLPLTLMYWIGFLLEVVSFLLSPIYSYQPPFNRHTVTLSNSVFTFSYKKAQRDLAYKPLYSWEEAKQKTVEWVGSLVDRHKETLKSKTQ
In words: Inhibition of human adrenal 3β-hydroxy-Δ^5-steroid dehydrogenase/3-keto-Δ^5-steroid isomerase (conversion of DHEA to androstenedione, human adrenal microsomes). The format is biochemical. The conditions noted are these: pH 7.5, DHEA substrate, 1 mM NAD^+, 1 to 60 minutes. The procedure:
Enzyme activities are measured using microsomes derived from human adrenal tissues. Microsomes were prepared by homogenization of the tissue followed by differential centrifugation of the homogenate. Microsome extracts were incubated with varying concentrations of dehydroepiandrosterone (DHEA), 1 mM NAD^+, and varying amounts of the compounds of Formula (I), i.e. a test compound, in pH 7.5 buffer for a period of time within the range of 1 to 60 minutes. Corresponding incubations were carried out with no test compound as a control study. The percentage of conversion of DHEA to androstenedione in the presence of test compounds compared to the corresponding conversion in the control study was estimated using HPLC with radiochemical detection.

The conditions of data set [2]: literature (McConnell; Rasmusson); cited from earlier work.
The test system of data set [3] is bovine adrenal 3β-hydroxy-Δ^5 -steroid dehydrogenase/3-keto-Δ^5 -steroid isomerase (3BHSD). The conditions noted are these: literature (Tan; Brandt and Levy); cited from earlier work.
In data set [4] the test system is porcine granulosa cell 3β-hydroxy-Δ^5 -steroid dehydrogenase/3-keto-Δ^5 -steroid isomerase (3BHSD). The conditions noted are these: literature (Tan; Brandt and Levy); cited from earlier work.
Data set [5] has as its target T2, human type 1 5α-reductase (Homo sapiens, UniProt P18405).
T2 construct: made in house; host or cells: recombinant baculovirus infected SF9 cells (microsomes)
T2 sequence (P18405 1-259): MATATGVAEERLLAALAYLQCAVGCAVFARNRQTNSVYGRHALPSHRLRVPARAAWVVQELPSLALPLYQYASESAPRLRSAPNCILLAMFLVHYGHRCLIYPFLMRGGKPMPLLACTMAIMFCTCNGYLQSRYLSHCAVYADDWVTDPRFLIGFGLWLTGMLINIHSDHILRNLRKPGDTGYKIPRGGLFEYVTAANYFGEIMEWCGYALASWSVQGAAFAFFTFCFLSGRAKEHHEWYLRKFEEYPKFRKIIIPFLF
In words: Inhibition of human type 1 5α-reductase (conversion of testosterone to DHT, microsomes of baculovirus infected SF9 cells). The format is biochemical. The conditions noted are these: pH 7.0, 100 nM testosterone, 10 min preincubation, 10-120 min; read-out: IC50 Human Type 1 5AR. How it is done:
(§1) Enzyme activities may be determined using microsomes derived from: 1) prostate tissue from benign prostatic hyperplasia (BPH) patients; 2) recombinant baculovirus infected SF9 cells that express human type 1 5α-reductase; or 3) recombinant baculovirus infected SF9 cells that express human type 2 5α-reductase. Microsomes were prepared by homogenization of the tissue or cells, followed by differential centrifugation of the homogenate. Microsome extracts were incubated with varying concentrations of [1,2,6,7-^3 H]-testosterone, 1 mM NADPH, and varying amounts of the compounds of formula (I,) i.e. a test compound, in buffer containing a NADPH regenerating system capable of maintaining NADPH concentrations for a period of time within the range 0.5-240 minutes. Corresponding incubations were carried out with no test compound as a control study.
(§2) For type 1 IC50 measurements, assay components except testosterone were preincubated for 10 minutes at pH 7.0, and following the addition of 100 nM testosterone the assays were allowed to proceed for 10-120 minutes. For type 2 IC50 measurements, assay components except testosterone were preincubated for 20 minutes at pH 6.0, and following the addition of 8 nM testosterone the assays were allowed to proceed for 20-40 minutes. […]

In data set [6] the target is T3, human type 2 5α-reductase (Homo sapiens, UniProt P31213).
T3 construct: made in house; host or cells: recombinant baculovirus infected SF9 cells (microsomes); prostate tissue of BPH patients is printed as an alternative
T3 sequence (P31213 1-254): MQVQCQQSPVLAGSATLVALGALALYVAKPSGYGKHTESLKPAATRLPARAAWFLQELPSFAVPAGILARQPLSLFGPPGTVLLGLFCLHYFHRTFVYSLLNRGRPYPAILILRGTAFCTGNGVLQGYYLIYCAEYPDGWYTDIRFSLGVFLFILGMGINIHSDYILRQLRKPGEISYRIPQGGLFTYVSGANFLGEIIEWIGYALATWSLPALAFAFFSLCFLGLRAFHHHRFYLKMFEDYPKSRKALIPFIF
In words: Inhibition of human type 2 5α-reductase (conversion of testosterone to DHT, microsomes). The format is biochemical. To be noted: pH 6.0, 8 nM testosterone, 20 min preincubation, 20-40 min; read-out: IC50 Human Type 2 5AR. How it is done:
as §1, §2

In turn, `CN1C(=O)CC[C@]2(C)[C@H]3CC[C@]4(C)[C@@H](C(=O)NC5(c6ccc(Cl)cc6)CCCC5)CC[C@H]4[C@@H]3CC[C@@H]12` [Compound 2, 17β-N-1-(4-Chlorophenyl)cyclopentylcarbamoyl-4-methyl-4-aza-5α-androstan-3-one] yielded an inhibitory constant (Ki) in data set [1] of 10 to 1000 nM.
As to `CCN(CC)C(=O)[C@H]1CC[C@H]2[C@@H]3CC[C@H]4N(C)C(=O)CC[C@]4(C)[C@H]3CC[C@]12C` [Compound 4-MA], the hepatotoxicity result in data set [2] is on record as “hepatotoxicity”. The “inhibition of bovine adrenal 3BHSD” value in data set [3] is on record as “potent inhibition”. For the same compound, the “inhibition of porcine granulosa cell 3BHSD” value in data set [4] was “potent inhibition”.
In the case of `C[C@]12C=CC(=O)N[C@@H]1CC[C@@H]1[C@@H]2CC[C@]2(C)[C@@H](C(=O)NC3(c4ccc5c(c4)OCO5)CCCCC3)CC[C@@H]12` [Compound 12, 17β-N-1-(3,4-Methylenedioxyphenyl)cyclohexylcarbamoyl-4-aza-5α-androst-1-en-3-one], the IC50 in data set [5] was in the range of 10 to 1000 nM. In data set [1], this compound registered a Ki of 10 to 1000 nM.
With `CN1C(=O)CC[C@]2(C)[C@H]3CC[C@]4(C)[C@@H](C(=O)Nc5cc(C(F)(F)F)ccc5C(F)(F)F)CC[C@H]4[C@@H]3CC[C@@H]12` [Compound 23, 17β-N-(2,5-bis(Trifluoromethyl))phenylcarbamoyl-4-methyl-4-aza-5α-androstan-3-one], the Ki in data set [1] lay in the range of 10 to 1000 nM.
Consider `CC(C)(C)c1ccc(C(F)(F)F)cc1NC(=O)[C@H]1CC[C@H]2[C@@H]3CC[C@H]4NC(=O)C=C[C@]4(C)[C@H]3CC[C@]12C` [Compound 24, 17β-N-(2-t-Butyl-5-trifluoromethyl)phenylcarbamoyl-4-aza-5α-androst-1-en-3-one], for which the IC50 in data set [6] lay within 1 to 10 nM.
As to `CN1C(=O)CC[C@]2(C)[C@H]3CC[C@]4(C)[C@@H](C(=O)Nc5cc(C(F)(F)F)ccc5C(C)(C)C)CC[C@H]4[C@@H]3CC[C@@H]12` [Compound 26, 17β-N-(2-t-Butyl-5-trifluoromethyl)phenylcarbamoyl-4-methyl-4-aza-5α-androstan-3-one], the Ki in data set [1] was 10 to 1000 nM.
In data set [1], `CC(C)(C)c1ccc(C(C)(C)C)c(NC(=O)[C@H]2CC[C@H]3[C@@H]4CC[C@H]5NC(=O)C=C[C@]5(C)[C@H]4CC[C@]23C)c1` [Compound 27, 17β-N-(2,5-Di-t-butyl)phenylcarbamoyl-4-aza-5α-androst-1-en-3-one] showed a Ki of 10 to 1000 nM.
The compound `CN1C(=O)CC[C@]2(C)[C@H]3CC[C@]4(C)[C@@H](C(=O)Nc5cc(C(C)(C)C)ccc5C(C)(C)C)CC[C@H]4[C@@H]3CC[C@@H]12` [Compound 29, 17β-N-(2,5-Di-t-butyl)phenylcarbamoyl-4-methyl-4-aza-5α-androstan-3-one] came in with a Ki in data set [1] of 10 to 1000 nM.

For orientation: Ki means a dissociation constant, usually derived from enzyme kinetics or from competition with a known ligand. A low value points to a stronger hold on the target. The IC50 is the concentration that inhibits the measured activity by half.
